Assay results: PMC6492180, “Cytome micronucleus assays with a metabolically competent human derived liver cell line (Huh6): A promising approach for routine testing of chemicals?” (Environmental and Molecular Mutagenesis, 2018)
Like-named read-outs stand apart in the source and are kept apart here. Marks after values point to notes of the source that are not given here.

Columns and labels:
[1] = system: Huh6 cells
Description: All experiments were performed in duplicate.
3.8–4.0 × 10^5 cells per well were seeded into 6‐well plates with 3 mL of RPMI (4% FBS) for 12 hr, then dilutions of stock solutions of the diagnostic mutagens were added for different time periods (4, 24, and 48 hr). In each experimental series solvent controls were included. Subsequently, the cells were washed twice with 3.0 mL medium. […] Finally, the cells were washed and trypsinised. Afterwards the cells were washed twice with 8.0 mL RPMI and collected on slides by cytocentrifugation (600 rpm, 5 min). The slides were air dried, fixed, and stained with DiffQuick according to the instructions of the manufacturer. For each experimental point, two cultures were tested per dose. From each culture ≥1,000 BN cells were evaluated under 400‐fold magnification (Nikon Photophot‐FXA, Tokyo, Japan). At least 2,000 binucleated cells were analyzed per dose for the determination of the different nuclear anomalies (MN, NBuds, and NBs).
The experiments were performed as described in the previous chapter. The cells were exposed only to one dose of the different mutagens and were cultivated after the seeding in 6‐well plates which contained 4% or 10% FBS in RPMI, respectively.
Data were evaluated by generalized linear model with Poisson counts. Chi‐square tests for overdispersion were applied. […] P values ≤0.05 were considered statistically significant.
^150-60 000 cells were seeded in 6 well plates with 3 ml RPMI (4% FBS), subsequently different solutions of the test compound (dissolved in medium) were added. After treatment for different time periods, the cells was washed and processed as described in the Material and Method section. […] From each culture 1000 binoculated cells were evaluated. BN-MN – number of micronucleated cells; MN - total number of micronuclei; CBPI – cytokinesis-block proliferation index
^1The experiments were conducted essentially as described in the footnote of Table S1A-I. *p≤0.05

[2] = system: Human lymphocytes; settings: cited from earlier work
[3] = ref IARC (2018); cited from earlier work
[4] = system: HepG2; settings: cited from earlier work
[5] = system: HepaRG; settings: HepaRG; ref Josse et al., 2012; cited from earlier work
[6] = 10% FBS, 24 hr treatment, 0.5 µg/ml
[7] = 10% FBS, 24 hr treatment, 1 µg/ml

## c1ccc2c(c1)cc1ccc3cccc4ccc2c1c34 [B(a)P, Benzo(a)pyrene]
[1]; 4% FBS, 4hrs, 5 µM
  CBPI: 1.6 ± 0.1
[1]; 4% FBS, 4hrs, 10 µM
  CBPI: 1.6 ± 0.0
[1]; 4% FBS, 4hrs, 20 µM
  CBPI: 1.6 ± 0.1
[1]; 4% FBS, 24hrs, 5 µM
  CBPI: 1.4 ± 0.1
[1]; 4% FBS, 24hrs, 10 µM
  CBPI: 1.2 ± 0.1
[1]; 4% FBS, 48hrs, 0.4 µM
  CBPI: 1.9 ± 0.0
[1]; 4% FBS, 48hrs, 5 µM
  CBPI: 1.1 ± 0.1
[1]; 10% FBS, 24 hr treatment, 5 µM
  CBPI: 1.7 ± 0.0
[1]; 10% FBS, 24 hr treatment, 10 µM
  CBPI: 1.3 ± 0.1

## [NH2][Pt]([NH2])([Cl])[Cl] [CDDP, Cisplatin]
[1]; 4% FBS
  MN effects after 24 hr (or longer) compared with 4 hr treatment (in words): similar
[1]; 4% FBS, 1.0 μg/ml, 48h
  Toxicity in MN experiment (Figure 3): Toxic
[1]; 4% FBS, 4hrs, 0.05 µg/ml
  BN-MN (number of micronucleated cells): 16.0 ± 1.4 ‰
  Bridges: 0.0 ± 0.0 ‰
  Buds: 15.5 ± 2.1 ‰
  CBPI: 1.7 ± 0.1
  MN (total number of micronuclei): 16.0 ± 1.4 ‰
[1]; 4% FBS, 4hrs, 0.1 µg/ml
  BN-MN (number of micronucleated cells): 19.5 ± 0.7 ‰
  Bridges: 0.0 ± 0.0 ‰
  Buds: 16.5 ± 2.1 ‰
  CBPI: 1.6 ± 0.1
  MN (total number of micronuclei): 20.0 ± 1.4 ‰
[1]; 4% FBS, 4hrs, 0.5 µg/ml
  BN-MN (number of micronucleated cells): 19.5 ± 0.7 ‰
  Bridges: 0.0 ± 0.0 ‰
  Buds: 19.0 ± 1.4* ‰
  CBPI: 1.8 ± 0.1
  MN (total number of micronuclei): 21.5 ± 0.7 ‰
[1]; 4% FBS, 4hrs, 1 µg/ml
  BN-MN (number of micronucleated cells): 31.5 ± 5.0* ‰
  Bridges: 3.5 ± 0.7 ‰
  Buds: 34.0 ± 5.7* ‰
  CBPI: 1.5 ± 0.1
  MN (total number of micronuclei): 33.5 ± 5.0* ‰
[1]; 4% FBS, 24hrs, 0.1 µg/ml
  BN-MN (number of micronucleated cells): 13.5 ± 0.7 ‰
  Bridges: 0.0 ± 0.0 ‰
  Buds: 15.5 ± 0.7 ‰
  CBPI: 1.8 ± 0.1
  MN (total number of micronuclei): 14.0 ± 0.0 ‰
[1]; 4% FBS, 24hrs, 0.5 µg/ml
  BN-MN (number of micronucleated cells): 25.5 ± 0.7* ‰
  Bridges: 2.5 ± 0.7 ‰
  Buds: 30.5 ± 2.1* ‰
  CBPI: 2.0 ± 0.0
  MN (total number of micronuclei): 34.0 ± 1.4* ‰
[1]; 4% FBS, 24hrs, 1 µg/ml
  BN-MN (number of micronucleated cells): 29.5 ± 0.7* ‰
  Bridges: 5.0 ± 1.4 ‰
  Buds: 36.0 ± 2.8* ‰
  CBPI: 1.8 ± 0.0
  MN (total number of micronuclei): 35.0 ± 1.4* ‰
[1]; 4% FBS, 48hrs, 0.1 µg/ml
  BN-MN (number of micronucleated cells): 16.5 ± 0.7 ‰
  Bridges: 0.0 ± 0.0 ‰
  Buds: 21.5 ± 2.1 ‰
  CBPI: 1.6 ± 0.0
  MN (total number of micronuclei): 17.0 ± 1.4 ‰
[1]; 4% FBS, 48hrs, 1 µg/ml
  CBPI: 1.2 ± 0.1
[1]; 4% FBS, 48hrs, […]
  BN-MN (number of micronucleated cells): 20.0 ± 1.4 ‰
  MN (total number of micronuclei): 20.5 ± 0.7 ‰
[1]; [6]
  BN-MN (number of micronucleated cells): 38.0 ± 1.4*
  Bridges: 0.5 ± 0.7
  Buds: 32.0 ± 5.7*
  CBPI: 1.9 ± 0.0
  MN (total number of micronuclei): 40.5 ± 0.7*
[1]; [7]
  BN-MN (number of micronucleated cells): 46.5 ± 2.1*
  Buds: 49.0 ± 2.8*
  CBPI: 1.9 ± 0.1
  MN (total number of micronuclei): 50.0 ± 1.4*
[1]; 24 hr treatment
  MN frequencies with 10% serum compared with 4% serum (in words): pronounced increase
[1]; Huh6
  Lowest effective concentration (LOEC) in micronucleus experiments: 0.5 µg/mL
[2]; Human lymphocytes, ref Fowler et al., 2014
  Lowest effective concentration (LOEC) in micronucleus experiments: 1.0 (Fowler et al., 2014) μg/mL
[3]
  IARC classification: Crosslinking agent; causes different types of DNA damage (gene mutations and CA); IARC: Group 2A
[4]; HepG2, ref Gajski et al., 2016
  Lowest effective concentration (LOEC) in micronucleus experiments: 0.1 (Gajski et al., 2016) μg/mL

## COc1cc([C@@H]2c3cc4c(cc3[C@@H](O[C@@H]3O[C@@H]5CO[C@@H](C)O[C@H]5[C@H](O)[C@H]3O)[C@H]3COC(=O)[C@H]23)OCO4)cc(OC)c1O [Etoposide]
[1]; 4% FBS, 4hrs, 0.01 µg/ml
  CBPI: 1.8 ± 0.1
[1]; 4% FBS, 4hrs, 0.05 µg/ml
  CBPI: 1.8 ± 0.1
[1]; 4% FBS, 4hrs, 0.1 µg/ml
  CBPI: 1.8 ± 0.1
[1]; 4% FBS, 24hrs, 0.01 µg/ml
  CBPI: 1.9 ± 0.0
[1]; 4% FBS, 24hrs, 0.1 µg/ml
  CBPI: 1.8 ± 0.0
[1]; 4% FBS, 48hrs, 0.01 µg/ml
  CBPI: 1.7 ± 0.0
[1]; 4% FBS, 48hrs, 0.1 µg/ml
  CBPI: 1.1 ± 0.0
[1]; 10% FBS, 24 hr treatment, 0.1 µg/ml
  CBPI: 1.9 ± 0.0

## OO [H2O2, Hydrogen peroxide]
[1]
  Change of MN rates after 48 hr treatment (in words): slight decrease
  Induction of MN after 4 hr treatment (in words): did not cause an effect
  Lowest effective concentration (LOEC) in micronucleus experiments: 10.0 µM
  MN effects after 24 hr (or longer) compared with 4 hr treatment (in words): more pronounced effects
  MN frequencies with 10% serum compared with 4% serum (in words): not increased
[2]
  Lowest effective concentration (LOEC) in micronucleus experiments: 100 (Andreoli et al., 1999) μM

## O=P1(N(CCCl)CCCl)NCCCO1 (stereo not shown) [cyclophosphamide]
[4]
  MN induction after 28 hr compared with 1 hr exposure (in words): stronger effects

## ClC(Cl)=C(c1ccc(Cl)cc1)c1ccc(Cl)cc1 [dichlorodiphenyldichloroethylene]
[5]
  MN formation with the longer exposure time, treatment for 1 or 7 days (in words): no such effects

## COC(=O)Nc1nc2cc(C(=O)c3cccs3)ccc2[nH]1 [noctazole]
[5]
  MN formation with the longer exposure time, treatment for 1 or 7 days (in words): no such effects
